The subject of assay [1] is HCC1806-XRCC1 KD (knock down) cells. Nature of the assay: Cellular viability assay (Cell Titer-Glo). It is filed as cell-based. The conditions noted are these: 96 h, HCC1806-shXRCC1 cells, 4 days of incubation, read-out: PARGi cell viability. The method in brief:
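XRCC1-knockdown HCC1806 cells seeded 24 h before dosing; 9-point 1:3 dilution from 30 μM top concentration, duplicates, 4-day incubation. Viability by CellTiter-Glo luminescence, normalized to DMSO wells as % of control; curves fit with 4-parameter inhibition model.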

For assay [2], the target named is T1, PARG (Homo sapiens, UniProt Q86W56). Nature of the assay: Inhibition of PARG enzymatic assay (TR-FRET enzymatic IC50 assay). As to conditions: hPARG 250 pM, biotinylated-PARylated PARP substrate 30 nM. Type of assay: biochemical. On the set-up: purchased Peak Proteins. An outline of the steps: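 Compound preincubated 1 h with 250 pM His-tagged hPARG, then 30 nM biotinylated PARylated hPARP1 substrate added for 10 min; buffer 50 mM Tris-HCl pH 7.4, EDTA/EGTA, 1 mM DTT, 23° C. TR-FRET read after 1 h with anti-His ULight antibody and streptavidin-europium; inhibition scaled between DMSO and no-enzyme controls.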

The target in assay [3] is T1, PARG. In words: Inhibition of PARG cellular assay (PAR foci in HeLa cells after MMS). It is filed as cell-based. On the set-up: endogenous in cells; host or cells: HeLa. The conditions noted are these: compound 1 h then MMS 1 h. The method in brief:
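HeLa cells pretreated with compound for 1 h, then given MMS for a further 1 h, fixed and immunostained for PAR polymer. High-content imaging quantified nuclear PAR foci intensity (PAR Foci IC50) and percent cells with foci signal >1.3 (PAR % positive IC50).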

Each structure is given as a SMILES string.

T1 sequence (Q86W56 whole entry): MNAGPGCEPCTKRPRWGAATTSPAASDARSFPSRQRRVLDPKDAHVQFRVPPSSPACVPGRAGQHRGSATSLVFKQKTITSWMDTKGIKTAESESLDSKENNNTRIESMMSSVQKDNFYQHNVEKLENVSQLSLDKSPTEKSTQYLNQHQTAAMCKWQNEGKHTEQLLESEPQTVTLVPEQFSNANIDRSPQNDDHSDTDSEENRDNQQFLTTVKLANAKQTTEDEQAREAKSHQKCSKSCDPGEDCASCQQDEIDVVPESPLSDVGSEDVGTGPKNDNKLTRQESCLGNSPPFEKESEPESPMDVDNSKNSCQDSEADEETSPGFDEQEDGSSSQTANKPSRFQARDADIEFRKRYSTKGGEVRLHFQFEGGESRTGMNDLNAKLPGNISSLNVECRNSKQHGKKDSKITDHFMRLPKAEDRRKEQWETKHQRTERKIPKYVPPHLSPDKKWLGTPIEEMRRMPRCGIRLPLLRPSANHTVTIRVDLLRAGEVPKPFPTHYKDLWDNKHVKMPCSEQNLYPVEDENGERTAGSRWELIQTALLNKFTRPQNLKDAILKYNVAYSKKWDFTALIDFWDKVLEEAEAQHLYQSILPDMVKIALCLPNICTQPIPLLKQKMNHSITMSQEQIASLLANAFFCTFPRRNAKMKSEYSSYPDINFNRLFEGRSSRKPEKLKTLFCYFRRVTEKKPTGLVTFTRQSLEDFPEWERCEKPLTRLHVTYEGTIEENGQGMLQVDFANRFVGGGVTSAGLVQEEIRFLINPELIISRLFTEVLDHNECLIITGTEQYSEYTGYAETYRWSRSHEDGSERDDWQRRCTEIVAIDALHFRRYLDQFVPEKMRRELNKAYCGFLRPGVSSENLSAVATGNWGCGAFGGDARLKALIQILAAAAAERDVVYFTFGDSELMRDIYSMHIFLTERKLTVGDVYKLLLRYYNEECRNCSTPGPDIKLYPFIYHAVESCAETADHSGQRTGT

Consider `N#CC1(NS(=O)(=O)c2cc(N3C[C@H]4COC[C@H]4C3)c3cnn(-c4nnc(C(F)F)s4)c3c2)CC1` [Example 48, 1-[({4-((1S,5R)-7-oxa-3-azabicyclo[3.3.0]oct-3-yl)-1-[5-(difluoromethyl)(1,3,4-thiadiazol-2-yl)]-1H-indazol-6-yl}sulfonyl)amino]cyclopropanecarbonitrile], for which the IC50 was 1 to 10 µM in assay [1], 0.1 to 0.3 µM against PARG [2] and 0.3 to 1 µM on PARG [3].

Take `CC(=O)N1CCN(c2cc(S(=O)(=O)NC3(C#N)CC3)cc3c2cnn3-c2nnc(C(F)F)s2)CC1` [Example 50, 1-[({4-(4-acetylpiperazinyl)-1-[5-(difluoromethyl)(1,3,4-thiadiazol-2-yl)]-1H-indazol-6-yl}sulfonyl)amino]cyclopropanecarbonitrile]: the IC50 in assay [1] was 1 to 10 µM; at PARG [2] it was at most 0.1 µM; on PARG [3] it was 0.3 to 1 µM.

With `CN(C)C(=O)C1CCN(c2cc(S(=O)(=O)NC3(C#N)CC3)cc3c2cnn3-c2nnc(C(F)F)s2)CC1` [Example 51, [1-(1-[5-(difluoromethyl)(1,3,4-thiadiazol-2-yl)]-6-{[(cyanocyclopropyl)amino]sulfonyl}(1H-indazol-4-yl))(4-piperidyl)]-N,N-dimethylcarboxamide], the IC50 lay within 10 to 20 µM in assay [1], 0.1 to 0.3 µM against PARG [2] and 0.3 to 1 µM against PARG [3].

With `N#CC1(NS(=O)(=O)c2cc(N3CCS(=O)(=O)CC3)c3cnn(-c4nnc(C(F)F)s4)c3c2)CC1` [Example 52, N-(1-cyanocyclopropyl)-1-(5-(difluoromethyl)-1,3,4-thiadiazol-2-yl)-4-(1,1-dioxidothiomorpholino)-1H-indazole-6-sulfonamide], the results for the IC50 (in assay [1]; against PARG [2]; on PARG [3]) were 1 to 10 µM, at most 0.1 µM and 0.3 to 1 µM, respectively.

Regarding `N#CC1(NS(=O)(=O)c2cc(N3CCN(C(=O)N4CCCC4)CC3)c3cnn(-c4nnc(C(F)F)s4)c3c2)CC1` [Example 57, 1-[({1-[5-(difluoromethyl)(1,3,4-thiadiazol-2-yl)]-4-[4-(pyrrolidinylcarbonyl)-piperazinyl]-1H-indazol-6-yl}sulfonyl)amino]cyclopropanecarbonitrile], the IC50 in assay [1] is under 1 µM; against PARG [2], at most 0.1 µM; against PARG [3], at most 0.1 µM.

Consider `N#CC1(NS(=O)(=O)c2cc(N3CCN4C(=O)CC[C@H]4C3)c3cnn(-c4nnc(C(F)F)s4)c3c2)CC1` [Example 59, 1-[({4-((1S)-7-oxo-3,6-diazabicyclo[4.3.0]non-3-yl)-1-[5-(difluoromethyl)(1,3,4-thiadiazol-2-yl)]-1H-indazol-6-yl}sulfonyl)amino]cyclopropanecarbonitrile], for which the values for the IC50 (in assay [1]; on PARG [2]; at PARG [3]) were 1 to 10 µM, at most 0.1 µM and 0.3 to 1 µM, respectively.

With `N#CC1(NS(=O)(=O)c2cc(N3CCN4C(=O)CC[C@@H]4C3)c3cnn(-c4nnc(C(F)F)s4)c3c2)CC1` [Example 60, 1-[({4-((1R)-7-oxo-3,6-diazabicyclo[4.3.0]non-3-yl)-1-[5-(difluoromethyl)(1,3,4-thiadiazol-2-yl)]-1H-indazol-6-yl}sulfonyl)amino]cyclopropanecarbonitrile], the values for the IC50 (in assay [1]; against PARG [2]; against PARG [3]) were 1 to 10 µM, at most 0.1 µM and 0.1 to 0.3 µM, respectively.

Take `N#CC1(NS(=O)(=O)c2cc(N3CCN(C(=O)C4CCCC4)CC3)c3cnn(-c4nnc(C(F)F)s4)c3c2)CC1` [Example 66, 1-[({1-[5-(difluoromethyl)(1,3,4-thiadiazol-2-yl)]-4-[4-(cyclopentylcarbonyl)piperazinyl]-1H-indazol-6-yl}sulfonyl)amino]cyclopropanecarbonitrile]: the results for the IC50 (in assay [1]; against PARG [2]; on PARG [3]) were 1 to 10 µM, at most 0.1 µM and at most 0.1 µM, respectively.

Regarding `CN(CC(F)F)C(=O)N1CCN(c2cc(S(=O)(=O)NC3(C#N)CC3)cc3c2cnn3-c2nnc(C(F)F)s2)CC1` [Example 67, N-(2,2-difluoroethyl)[4-(1-[5-(difluoromethyl)(1,3,4-thiadiazol-2-yl)]-6-{[(cyanocyclopropyl)amino]sulfonyl}(1H-indazol-4-yl))piperazinyl]-N-methylcarboxamide], the IC50 in assay [1] was under 1 µM; against PARG [2], at most 0.1 µM; at PARG [3], at most 0.1 µM.

In the case of `CN1CC[C@H](C(=O)N2CCN(c3cc(S(=O)(=O)NC4(C#N)CC4)cc4c3cnn4-c3nnc(C(F)F)s3)CC2)C1` [Example 68, 1-{[(4-{4-[((3S)-1-methylpyrrolidin-3-yl)carbonyl]piperazinyl}-1-[5-(difluoromethyl)(1,3,4-thiadiazol-2-yl)]-1H-indazol-6-yl)sulfonyl]amino}cyclopropanecarbonitrile], the results for the IC50 (in assay [1]; at PARG [2]; at PARG [3]) were 1 to 10 µM, at most 0.1 µM and 1 to 10 µM, respectively.

For the compound `Cn1ccnc1N1CCN(c2cc(S(=O)(=O)NC3(C#N)CC3)cc3c2cnn3-c2nnc(C(F)F)s2)CC1` [Example 69, 1-[({1-[5-(difluoromethyl)(1,3,4-thiadiazol-2-yl)]-4-[4-(1-methylimidazol-2-yl)piperazinyl]-1H-indazol-6-yl}sulfonyl)amino]cyclopropanecarbonitrile], the IC50 is under 1 µM in assay [1], at most 0.1 µM against PARG [2] and at most 0.1 µM at PARG [3].

Take `CCCN(C)C(=O)N1CCN(c2cc(S(=O)(=O)NC3(C#N)CC3)cc3c2cnn3-c2nnc(C(F)F)s2)CC1` [Example 77, [4-(1-[5-(difluoromethyl)(1,3,4-thiadiazol-2-yl)]-6-{[(cyanocyclopropyl)amino]sulfonyl}(1H-indazol-4-yl))piperazinyl]-N-methyl-N-propylcarboxamide]: the IC50 is under 1 µM in assay [1], at most 0.1 µM against PARG [2] and at most 0.1 µM on PARG [3].

For the compound `Cc1cccnc1N1CCN(c2cc(S(=O)(=O)NC3(C#N)CC3)cc3c2cnn3-c2nnc(C(F)F)s2)CC1` [Example 79, 1-[({1-[5-(difluoromethyl)(1,3,4-thiadiazol-2-yl)]-4-[4-(3-methyl(2-pyridyl))-piperazinyl]-1H-indazol-6-yl}sulfonyl)amino]cyclopropanecarbonitrile], the IC50 in assay [1] lay within 1 to 10 µM; on PARG [2], 0.3 to 1 µM; against PARG [3], 0.1 to 0.3 µM.

For the compound `N#CC1(NS(=O)(=O)c2cc(N3CCN(C(=O)C4CC4)CC3)c3cnn(-c4nnc(C(F)F)s4)c3c2)CC1` [Example 80, 1-[({1-[5-(difluoromethyl)(1,3,4-thiadiazol-2-yl)]-4-[4-(cyclopropylcarbonyl)piperazinyl]-1H-indazol-6-yl}sulfonyl)amino]cyclopropanecarbonitrile], the values for the IC50 (in assay [1]; against PARG [2]; at PARG [3]) were 1 to 10 µM, at most 0.1 µM and at most 0.1 µM, respectively.

With `CC(C)C(=O)N1CCN(c2cc(S(=O)(=O)NC3(C#N)CC3)cc3c2cnn3-c2nnc(C(F)F)s2)C[C@H]1C` [Example 82, 1-[({4-[(3R)-3-methyl-4-(2-methylpropanoyl)piperazinyl]-1-[5-(difluoromethyl) (1,3,4-thiadiazol-2-yl)]-1H-indazol-6-yl}sulfonyl)amino]cyclopropanecarbonitrile], the IC50 in assay [1] is under 1 µM; at PARG [2] it was at most 0.1 µM; on PARG [3] it was at most 0.1 µM.

In the case of `C[C@H]1CN(c2cc(S(=O)(=O)NC3(C#N)CC3)cc3c2cnn3-c2nnc(C(F)F)s2)CCN1C(=O)N(C)C` [Example 83, [(2S)-4-(1-[5-(difluoromethyl)(1,3,4-thiadiazol-2-yl)]-6-{[(cyanocyclopropyl)amino]sulfonyl}(1H-indazol-4-yl))-2-methylpiperazinyl]-N,N-dimethylcarboxamide], the IC50 in assay [1] was under 1 µM; at PARG [2], at most 0.1 µM; against PARG [3] it was at most 0.1 µM.

On to `Cc1ccncc1N1CCN(c2cc(S(=O)(=O)NC3(C#N)CC3)cc3c2cnn3-c2nnc(C(F)F)s2)CC1` [Example 84, 1-[({1-[5-(difluoromethyl)(1,3,4-thiadiazol-2-yl)]-4-[4-(4-methyl(3-pyridyl))piperazinyl]-1H-indazol-6-yl}sulfonyl)amino]cyclopropanecarbonitrile], for which the IC50 in assay [1] was 1 to 10 µM; against PARG [2], 0.3 to 1 µM; against PARG [3], 0.1 to 0.3 µM.

As for `CN1CCC(C(=O)N2CCN(c3cc(S(=O)(=O)NC4(C#N)CC4)cc4c3cnn4-c3nnc(C(F)F)s3)CC2)CC1` [Example 85, 1-{[(1-[5-(difluoromethyl)(1,3,4-thiadiazol-2-yl)]-4-{4-[(1-methyl(4-piperidyl))-carbonyl]piperazinyl}-1H-indazol-6-yl)sulfonyl]amino}cyclopropanecarbonitrile], the values for the IC50 (in assay [1]; at PARG [2]; at PARG [3]) were 1 to 10 µM, at most 0.1 µM and 1 to 10 µM, respectively.

As to `CN(CC(F)(F)F)C(=O)N1CCN(c2cc(S(=O)(=O)NC3(C#N)CC3)cc3c2cnn3-c2nnc(C(F)F)s2)CC1` [Example 86, [4-(1-[5-(difluoromethyl)(1,3,4-thiadiazol-2-yl)]-6-{[(cyanocyclopropyl)amino]sulfonyl}(1H-indazol-4-yl))piperazinyl]-N-methyl-N-(2,2,2-trifluoroethyl)carboxamide], the values for the IC50 (in assay [1]; on PARG [2]; against PARG [3]) were under 1 µM, at most 0.1 µM and at most 0.1 µM, respectively.

The record behind these values is patent US20220389003A1, “4-SUBSTITUTED INDOLE AND INDAZOLE SULFONAMIDO DERIVATIVES AS PARG INHIBITORS” (IDEAYA BIOSCIENCES, INC., priority 2019, published 2022).
